Measurements published in patent US7445765B2, “Radiopharmaceutical for diagnostic imaging containing a technetium-99m nitride heterocomplex” (Nihon Medi-Physics Co., Ltd., priority 2000, dated 2008).
Blank lines part the entries; values can stand above or below the compound they belong to.

Experiment: Biodistribution of the 99mTc(N) heterocomplexes in rats (organ uptake, heart accumulation, heart/lung and heart/liver ratios)
Assay type: in vivo, female Sprague-Dawley rats
Conditions: for Heart/liver ratio in biodistribution / Heart/lung ratio in biodistribution / Heart accumulation: rats
Procedure: The biodistribution was measured by using female Sprague-Dawley rats (SD rats) weighing 200 g to 250 g. Each of the ^99mTc(N) heterocomplexes purified in the manner described above was diluted with phosphate buffer (0.1 M, pH=7.4) to obtain a final solution having an ethanol content of 10%. After the SD rats were anesthetized with an intramuscular injection of a mixture of ketamine (80 mg/kg) and xilazine (19 mg/kg), the jugular vein of each rat was surgically exposed and 100 μL (300 to 370 kBq) of the solution containing each ^99mTc(N) heterocomplexes prepared in the manner described above was injected in the jugular vein. The rats (n=3) were sacrificed by cervical dislocation at different times post injection. The blood was withdrawn from the heart through a syringe and counted. It was assumed that the whole blood content was 6.5% of the total body weight. The organs were excised from the rats, washed with physiological saline, weighed, and counted in a NaI well counter.
For comparison, Tables 19 and 20 show the results, obtained in the same manner as above, of measuring the biodistribution of (^99mTc) (MIBI) and (^99mTc) (Tf) which have been used as pharmaceuticals for diagnostic imaging for blood flow in myocardium.
Tables 21 to 23 show data showing the variations with time of heart accumulation, heart/lung ratios and heart/liver ratios for the ^99mTc(N) heterocomplexes of the present invention.

Compound: CCOCCN1CC[P](CCCOC)(CCCOC)[99Tc+]2(#[N])([S]C(N(CCOCC)C(C)C)=[S]2)[P](CCCOC)(CCCOC)CC1 [[^99mTc(N) (PNP5) (ISOET)^+]]
Heart/liver ratio in biodistribution (0 min): 3.53
Heart/lung ratio in biodistribution (0 min): 1.37
Heart/liver ratio in biodistribution (2 min): 0.83
Heart/lung ratio in biodistribution (2 min): 3.15
Heart/liver ratio in biodistribution (10 min): 1.90
Heart/lung ratio in biodistribution (10 min): 3.99
Heart/liver ratio in biodistribution (20 min): 2.62
Heart/lung ratio in biodistribution (20 min): 5.72
Heart/liver ratio in biodistribution (30 min): 2.33
Heart/lung ratio in biodistribution (30 min): 5.49
Heart/liver ratio in biodistribution (60 min): 6.37
Heart/lung ratio in biodistribution (60 min): 7.83
Heart/liver ratio in biodistribution (120 min): 10.61
Heart/lung ratio in biodistribution (120 min): 11.09

Compound: CCOCCC[P]1(CCCOCC)CCN(CCOCC)CC[P](CCCOCC)(CCCOCC)[99Tc+]12(#[N])[S]C(N(CCOCC)CCOCC)=[S]2 [[^99mTc(N) (PNP6) (DBODC)^+]]
Heart/liver ratio in biodistribution (0 min): 0.63
Heart/lung ratio in biodistribution (0 min): 0.58
Heart/liver ratio in biodistribution (2 min): 0.21
Heart/lung ratio in biodistribution (2 min): 0.99
Heart/liver ratio in biodistribution (10 min): 0.18
Heart/lung ratio in biodistribution (10 min): 1.26
Heart/liver ratio in biodistribution (20 min): 0.18
Heart/lung ratio in biodistribution (20 min): 1.48
Heart/liver ratio in biodistribution (30 min): 0.23
Heart/lung ratio in biodistribution (30 min): 1.75
Heart/liver ratio in biodistribution (60 min): 0.31
Heart/lung ratio in biodistribution (60 min): 2.29
Heart/liver ratio in biodistribution (120 min): 0.51
Heart/lung ratio in biodistribution (120 min): 3.91

Compound: COCCC[P]1(CCCOC)CCN(CCOC)CC[P](CCCOC)(CCCOC)[99Tc+]12(#[N])[S]C(N(CCOC)CCOC)=[S]2 [[^99m−Tc(N) (PNP3) (DPODC)^+]]
Heart accumulation (0 min): 3.08 ± 0.31 % ID/g
Heart/liver ratio in biodistribution (0 min): 0.89
Heart/lung ratio in biodistribution (0 min): 2.12
Heart accumulation (2 min): 2.06 ± 0.13 % ID/g
Heart/liver ratio in biodistribution (2 min): 0.56
Heart/lung ratio in biodistribution (2 min): 3.17
Heart accumulation (10 min): 2.37 ± 0.33 % ID/g
Heart/liver ratio in biodistribution (10 min): 0.68
Heart/lung ratio in biodistribution (10 min): 3.54
Heart accumulation (20 min): 2.49 ± 0.31 % ID/g
Heart/liver ratio in biodistribution (20 min): 1.34
Heart/lung ratio in biodistribution (20 min): 5.79
Heart accumulation (30 min): 2.57 ± 0.06 % ID/g
Heart/liver ratio in biodistribution (30 min): 1.98
Heart/lung ratio in biodistribution (30 min): 6.27
Heart accumulation (60 min): 2.26 ± 0.06 % ID/g
Heart/liver ratio in biodistribution (60 min): 5.38
Heart/lung ratio in biodistribution (60 min): 8.37
Heart accumulation (120 min): 2.45 ± 0.41 % ID/g
Heart/liver ratio in biodistribution (120 min): 15.31
Heart/lung ratio in biodistribution (120 min): 12.25

Compound: CCOCCN1CC[P](CCCOC)(CCCOC)[99Tc+]2(#[N])([S]C(N(CCOCC)C(C)C)=[S]2)[P](CCCOC)(CCCOC)CC1 [[^99m−Tc(N) (PNP5) (ISOET)^+]]
Heart accumulation (0 min): 3.35 ± 0.51 % ID/g
Heart accumulation (2 min): 2.33 ± 0.17 % ID/g
Heart accumulation (10 min): 2.91 ± 0.36 % ID/g
Heart accumulation (20 min): 2.86 ± 0.07 % ID/g
Heart accumulation (30 min): 2.47 ± 0.49 % ID/g
Heart accumulation (60 min): 2.74 ± 0.19 % ID/g
Heart accumulation (120 min): 2.44 ± 0.05 % ID/g

The next lines start with the values.

Biodistribution in rats: Adrenal glands (2 min post injection): 2.24 % dose/g
Biodistribution in rats: Blood (2 min post injection): 0.14 % dose/g
Biodistribution in rats: Brain (2 min post injection): 0.02 % dose/g
Biodistribution in rats: Heart (2 min post injection): 2.33 % dose/g
Biodistribution in rats: Intestine (2 min post injection): 3.68 % dose/g
Biodistribution in rats: Kidneys (2 min post injection): 7.19 % dose/g
Biodistribution in rats: Liver (2 min post injection): 2.79 % dose/g
Biodistribution in rats: Lungs (2 min post injection): 0.74 % dose/g
Biodistribution in rats: Muscle (2 min post injection): 0.16 % dose/g
Biodistribution in rats: Spleen (2 min post injection): 1.11 % dose/g
Biodistribution in rats: Submax. glands (2 min post injection): 0.95 % dose/g
Biodistribution in rats: Adrenal glands (10 min (Table 16)): 2.22 % dose/g
Biodistribution in rats: Blood (10 min (Table 16)): 0.93 % dose/g
Biodistribution in rats: Brain (10 min (Table 16)): 0.10 % dose/g
Biodistribution in rats: Heart (10 min (Table 16)): 3.35 % dose/g
Biodistribution in rats: Intestine (10 min (Table 16)): 3.70 % dose/g
Biodistribution in rats: Kidneys (10 min (Table 16)): 5.40 % dose/g
Biodistribution in rats: Liver (10 min (Table 16)): 0.95 % dose/g
Biodistribution in rats: Lungs (10 min (Table 16)): 2.44 % dose/g
Biodistribution in rats: Muscle (10 min (Table 16)): 0.13 % dose/g
Biodistribution in rats: Spleen (10 min (Table 16)): 1.16 % dose/g
Biodistribution in rats: Submax. glands (10 min (Table 16)): 0.92 % dose/g
Biodistribution in rats: Adrenal glands (10 min post injection): 2.70 % dose/g
Biodistribution in rats: Blood (10 min post injection): 0.04 % dose/g
Biodistribution in rats: Brain (10 min post injection): 0.02 % dose/g
Biodistribution in rats: Heart (10 min post injection): 2.91 % dose/g
Biodistribution in rats: Intestine (10 min post injection): 7.12 % dose/g
Biodistribution in rats: Kidneys (10 min post injection): 5.98 % dose/g
Biodistribution in rats: Liver (10 min post injection): 1.54 % dose/g
Biodistribution in rats: Lungs (10 min post injection): 0.73 % dose/g
Biodistribution in rats: Muscle (10 min post injection): 0.22 % dose/g
Biodistribution in rats: Spleen (10 min post injection): 1.28 % dose/g
Biodistribution in rats: Submax. glands (10 min post injection): 1.40 % dose/g
Biodistribution in rats: Adrenal glands (20 min post injection): 2.70 % dose/g
Biodistribution in rats: Blood (20 min post injection): 0.02 % dose/g
Biodistribution in rats: Brain (20 min post injection): 0.01 % dose/g
Biodistribution in rats: Heart (20 min post injection): 2.86 % dose/g
Biodistribution in rats: Intestine (20 min post injection): 7.44 % dose/g
Biodistribution in rats: Kidneys (20 min post injection): 5.31 % dose/g
Biodistribution in rats: Liver (20 min post injection): 1.09 % dose/g
Biodistribution in rats: Lungs (20 min post injection): 0.50 % dose/g
Biodistribution in rats: Muscle (20 min post injection): 0.20 % dose/g
Biodistribution in rats: Spleen (20 min post injection): 1.20 % dose/g
Biodistribution in rats: Submax. glands (20 min post injection): 1.85 % dose/g
Biodistribution in rats: Adrenal glands (30 min post injection): 2.72 % dose/g
Biodistribution in rats: Blood (30 min post injection): 0.02 % dose/g
Biodistribution in rats: Brain (30 min post injection): 0.01 % dose/g
Biodistribution in rats: Heart (30 min post injection): 2.47 % dose/g
Biodistribution in rats: Intestine (30 min post injection): 8.36 % dose/g
Biodistribution in rats: Kidneys (30 min post injection): 5.28 % dose/g
Biodistribution in rats: Liver (30 min post injection): 1.06 % dose/g
Biodistribution in rats: Lungs (30 min post injection): 0.45 % dose/g
Biodistribution in rats: Muscle (30 min post injection): 0.13 % dose/g
Biodistribution in rats: Spleen (30 min post injection): 0.35 % dose/g
Biodistribution in rats: Submax. glands (30 min post injection): 1.51 % dose/g
Biodistribution in rats: Adrenal glands (60 min post injection): 2.23 % dose/g
Biodistribution in rats: Blood (60 min post injection): 0.02 % dose/g
Biodistribution in rats: Brain (60 min post injection): 0.00 % dose/g
Biodistribution in rats: Heart (60 min post injection): 2.74 % dose/g
Biodistribution in rats: Intestine (60 min post injection): 8.29 % dose/g
Biodistribution in rats: Kidneys (60 min post injection): 5.12 % dose/g
Biodistribution in rats: Liver (60 min post injection): 0.43 % dose/g
Biodistribution in rats: Lungs (60 min post injection): 0.35 % dose/g
Biodistribution in rats: Muscle (60 min post injection): 0.15 % dose/g
Biodistribution in rats: Spleen (60 min post injection): 0.73 % dose/g
Biodistribution in rats: Submax. glands (60 min post injection): 1.79 % dose/g
Biodistribution in rats: Adrenal glands (120 min post injection): 2.98 % dose/g
Biodistribution in rats: Blood (120 min post injection): 0.01 % dose/g
Biodistribution in rats: Brain (120 min post injection): 0.01 % dose/g
Biodistribution in rats: Heart (120 min post injection): 2.44 % dose/g
Biodistribution in rats: Intestine (120 min post injection): 8.00 % dose/g
Biodistribution in rats: Kidneys (120 min post injection): 4.50 % dose/g
Biodistribution in rats: Liver (120 min post injection): 0.23 % dose/g
Biodistribution in rats: Lungs (120 min post injection): 0.22 % dose/g
Biodistribution in rats: Muscle (120 min post injection): 0.19 % dose/g
Biodistribution in rats: Spleen (120 min post injection): 0.41 % dose/g
Biodistribution in rats: Submax. glands (120 min post injection): 1.38 % dose/g
Compound: CCOCCN1CC[P](CCCOC)(CCCOC)[99Tc+]2(#[N])([S]C(N(CCOCC)C(C)C)=[S]2)[P](CCCOC)(CCCOC)CC1 [[^99mTc(N) (PNP5) (ISOET)]^+]

Heart accumulation (0 min): 3.57 ± 0.14 % ID/g
Heart/liver ratio in biodistribution (0 min): 2.45
Heart/lung ratio in biodistribution (0 min): 2.32
Heart accumulation (2 min): 3.42 ± 0.19 % ID/g
Heart/liver ratio in biodistribution (2 min): 1.99
Heart/lung ratio in biodistribution (2 min): 3.39
Heart accumulation (10 min): 3.65 ± 0.56 % ID/g
Heart/liver ratio in biodistribution (10 min): 2.55
Heart/lung ratio in biodistribution (10 min): 4.74
Heart accumulation (20 min): 3.32 ± 0.18 % ID/g
Heart/liver ratio in biodistribution (20 min): 3.82
Heart/lung ratio in biodistribution (20 min): 3.95
Heart accumulation (30 min): 3.27 ± 0.36 % ID/g
Heart/liver ratio in biodistribution (30 min): 7.79
Heart/lung ratio in biodistribution (30 min): 4.74
Heart accumulation (60 min): 3.27 ± 0.62 % ID/g
Heart/liver ratio in biodistribution (60 min): 20.44
Heart/lung ratio in biodistribution (60 min): 9.60
Heart accumulation (120 min): 3.00 ± 0.42 % ID/g
Heart/liver ratio in biodistribution (120 min): 25.01
Heart/lung ratio in biodistribution (120 min): 11.10
Compound: CCOCCN(CCOCC)C1=[S][99Tc+]2(#[N])([S]1)[P](CCCOC)(CCCOC)CCN(CCOC)CC[P]2(CCCOC)CCCOC [[^99m−Tc(N) (PNP3) (DBODC)^+]]

Heart accumulation (0 min): 5.01 ± 0.16 % ID/g
Heart accumulation (2 min): 3.94 ± 0.32 % ID/g
Heart accumulation (10 min): 3.69 ± 0.29 % ID/g
Heart accumulation (20 min): 3.63 ± 0.46 % ID/g
Heart accumulation (30 min): 3.73 ± 0.48 % ID/g
Heart accumulation (60 min): 3.76 ± 0.39 % ID/g
Heart accumulation (120 min): 3.31 ± 0.06 % ID/g
Compound: CCOCCN1CC[P](CCCOC)(CCCOC)[99Tc+]2(#[N])([S]C(N(CCOCC)CCOCC)=[S]2)[P](CCCOC)(CCCOC)CC1 [[^99m−Tc(N) (PNP5) (DBODC)^+]]

Heart accumulation (0 min): 2.26 ± 0.82 % ID/g
Heart accumulation (2 min): 1.24 ± 0.14 % ID/g
Heart accumulation (10 min): 1.39 ± 0.30 % ID/g
Heart accumulation (20 min): 1.18 ± 0.18 % ID/g
Heart accumulation (30 min): 1.05 ± 0.19 % ID/g
Heart accumulation (60 min): 1.10 ± 0.11 % ID/g
Heart accumulation (120 min): 1.29 ± 0.16 % ID/g
Compound: CCOCCC[P]1(CCCOCC)CCN(CCOCC)CC[P](CCCOCC)(CCCOCC)[99Tc+]12(#[N])[S]C(N(CCOCC)CCOCC)=[S]2 [[^99m−Tc(N) (PNP6) (DBODC)^+]]
